Assay results taken from PubChem BioAssay (NCI).
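Tested at 5 concentrations; 48 h exposure; 96-well plates; endpoints linearly interpolated, else capped at highest concentration. TGI: concentration producing complete growth inhibition.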

Tests used:
Assay in all cases: NCI tumour cell line growth inhibition, 48 h
[1] = test system: IGROV1 ovarian
[2] = test system: SR leukemia
[3] = test system: HL-60(TB) leukemia
[4] = test system: TK-10 renal
[5] = test system: UO-31 renal
[6] = test system: NCI-H23 lung
[7] = test system: BT-549 breast
[8] = test system: SF-268 CNS
[9] = test system: KM12 colon
[10] = test system: SNB-75 CNS
[11] = test system: NCI-H226 lung
[12] = test system: SK-MEL-2 melanoma
[13] = test system: SN12C renal
[14] = test system: SF-539 CNS
[15] = test system: U251 CNS
[16] = test system: HCT-116 colon
[17] = test system: HOP-92 NSCLC
[18] = test system: SK-MEL-28 melanoma
[19] = test system: COLO 205 colon
[20] = test system: SK-MEL-5 melanoma
[21] = test system: A498 renal
[22] = test system: MDA-MB-231 breast
[23] = test system: T-47D breast
[24] = test system: SK-OV-3 ovarian
[25] = test system: UACC-62 melanoma
[26] = test system: HT29 colon
[27] = test system: OVCAR-5 ovarian
[28] = test system: PC-3 prostate
[29] = test system: 786-0 renal
[30] = test system: UACC-257 melanoma
[31] = test system: RPMI-8226 leukemia
[32] = test system: NCI-H522 lung
[33] = test system: M14 melanoma
[34] = test system: CAKI-1 renal
[35] = test system: K-562 leukemia
[36] = test system: LOX IMVI melanoma
[37] = test system: MALME-3M melanoma
[38] = test system: NCI/ADR-RES ovarian
[39] = test system: DU-145 prostate
[40] = test system: OVCAR-3 ovarian
[41] = test system: SNB-19 CNS
[42] = test system: HCC-2998 colon
[43] = test system: A549 NSCLC
[44] = test system: ACHN renal
[45] = test system: HCT-15 colon
[46] = test system: MDA-MB-435
[47] = test system: EKVX NSCLC
[48] = test system: RXF 393 renal
[49] = test system: OVCAR-4 ovarian
[50] = test system: MCF7 breast
[51] = test system: NCI-H460 lung
[52] = test system: MDA-N
[53] = test system: HOP-62 NSCLC
[54] = test system: SF-295 CNS
[55] = test system: CCRF-CEM leukemia
[56] = test system: MOLT-4 leukemia
[57] = test system: SW-620 colon
[58] = test system: HS 578T breast
[59] = test system: OVCAR-8 ovarian

## CCOP(=O)(OCC)C(Nc1cccc([N+](=O)[O-])c1)c1ccccc1 (centres undefined)
[1]
  TGI: 25.5 µM
[2]
  TGI: > 100 µM
[3]
  TGI: > 100 µM
[4]
  TGI: > 100 µM
[5]
  TGI: > 100 µM
[6]
  TGI: > 100 µM
[7]
  TGI: > 100 µM
[8]
  TGI: > 100 µM
[9]
  TGI: > 100 µM
[10]
  TGI: > 100 µM
[11]
  TGI: > 100 µM
[12]
  TGI: > 100 µM
[13]
  TGI: > 100 µM
[14]
  TGI: > 100 µM
[15]
  TGI: > 100 µM
[16]
  TGI: > 100 µM
[17]
  TGI: > 100 µM
[18]
  TGI: > 100 µM
[19]
  TGI: > 100 µM
[20]
  TGI: > 100 µM
[21]
  TGI: > 100 µM
[22]
  TGI: > 100 µM
[23]
  TGI: 62.1 µM
[24]
  TGI: > 100 µM
[25]
  TGI: > 100 µM
[26]
  TGI: > 100 µM
[27]
  TGI: > 100 µM
[28]
  TGI: > 100 µM
[29]
  TGI: > 100 µM
[30]
  TGI: > 100 µM
[31]
  TGI: > 100 µM
[32]
  TGI: > 100 µM
[33]
  TGI: > 100 µM
[34]
  TGI: > 100 µM
[35]
  TGI: > 100 µM
[36]
  TGI: > 100 µM
[37]
  TGI: > 100 µM
[38]
  TGI: > 100 µM
[39]
  TGI: > 100 µM
[40]
  TGI: > 100 µM
[41]
  TGI: > 100 µM
[42]
  TGI: > 100 µM
[43]
  TGI: > 100 µM
[44]
  TGI: > 100 µM
[45]
  TGI: > 100 µM
[46]
  TGI: > 100 µM
[47]
  TGI: > 100 µM
[48]
  TGI: > 100 µM
[49]
  TGI: > 100 µM
[50]
  TGI: > 100 µM
[51]
  TGI: > 100 µM
[52]
  TGI: > 100 µM
[53]
  TGI: > 100 µM
[54]
  TGI: > 100 µM
[55]
  TGI: > 100 µM
[56]
  TGI: > 100 µM

## NC1CC(N)c2c(Br)sc(Br)c21 (centres undefined)
[1]
  TGI: > 100 µM
[2]
  TGI: > 100 µM
[4]
  TGI: > 100 µM
[5]
  TGI: > 100 µM
[6]
  TGI: > 100 µM
[7]
  TGI: > 100 µM
[8]
  TGI: > 100 µM
[9]
  TGI: > 100 µM
[11]
  TGI: > 100 µM
[12]
  TGI: > 100 µM
[13]
  TGI: > 100 µM
[14]
  TGI: > 100 µM
[15]
  TGI: > 100 µM
[16]
  TGI: > 100 µM
[17]
  TGI: > 100 µM
[18]
  TGI: > 100 µM
[19]
  TGI: > 100 µM
[20]
  TGI: > 100 µM
[21]
  TGI: > 100 µM
[22]
  TGI: > 100 µM
[23]
  TGI: > 100 µM
[24]
  TGI: > 100 µM
[25]
  TGI: > 100 µM
[57]
  TGI: > 100 µM
[26]
  TGI: > 100 µM
[27]
  TGI: > 100 µM
[29]
  TGI: > 100 µM
[30]
  TGI: > 100 µM
[32]
  TGI: > 100 µM
[33]
  TGI: > 100 µM
[34]
  TGI: > 100 µM
[35]
  TGI: > 100 µM
[58]
  TGI: > 100 µM
[36]
  TGI: > 100 µM
[59]
  TGI: > 100 µM
[37]
  TGI: > 100 µM
[38]
  TGI: > 100 µM
[39]
  TGI: > 100 µM
[40]
  TGI: > 100 µM
[42]
  TGI: > 100 µM
[43]
  TGI: > 100 µM
[44]
  TGI: > 100 µM
[45]
  TGI: > 100 µM
[46]
  TGI: > 100 µM
[47]
  TGI: > 100 µM
[49]
  TGI: > 100 µM
[50]
  TGI: > 100 µM
[51]
  TGI: > 100 µM
[52]
  TGI: > 100 µM
[53]
  TGI: > 100 µM
[54]
  TGI: > 100 µM
[55]
  TGI: > 100 µM
[56]
  TGI: > 100 µM
